Data on eleven molecules can be found in patent US8945879B2, “Methods for recombinant expression of a polypeptide comprising a carbohydrate binding module using a host cell having reduced expression of a protease” (priority 2007, dated 2015).

Numbered stars: 1 amine (or outer) side, 2 acyl side, 3 side chain; on linkers, the order of the positions; unused ones are H or OH. Square brackets hold non-standard residues; d marks the D form. Peptide text beside a SMILES is read from it. * marks the point of attachment. Sta = CC(C)C[C@H](N)[C@@H](O)CC(=O)O; AMC = Cc1cc(=O)oc2cc(N*)ccc12; Suc = O=C(CCC(=O)[*:2])[*:1]; Isovaleryl = CC(C)CC(=O)*; code Z = not defined here; Boc = CC(C)(C)OC(=O)*

The chains are these.
B1: 19 kDa protease: Aspergillus niger 19 kDa protease (SEQ ID NO: 5) expressed intracellularly in A. oryzae, pooled gel permeation fractions (protein)
chain: MSPIPSYSRPGRGQHFQDAYGFAEACIAGDRMEIAGQTGMSPTSTEVPPTLEEEVAQAFNNINEVILYTLEKAKPDLRASVKSGWDRVVKIRTYHVQLPQTREKIIGLMVENVKKWCPDHQPTWTMLGIEALPFEGQNLEIEVDVFLG
modifications: Aspergillus niger

The test system of the first assay is 19 kDa protease. Put plainly: Effects of inhibitors on the 19 kDa protease (Suc-LLVY-MCA hydrolysis). Type of assay: biochemical, Aspergillus niger. As to conditions: substrate 0.04 mM Suc-LLVY-MCA, KPB pH 6.7, 37° C.; 10 μl inhibitor stock (10 mM AEBSF, ZnSO4, EDTA; leupeptin 4.5 mg/10 ml and pepstatin A 3 mg/10 ml in DMSO diluted 10 times). The procedure:
(§1) Five synthetic substrates were purchased from Peptide Institute Co., Osaka. The substrates are Glt-AAF-MCA, Suc-LLVY-MCA, Boc-FSR-MCA, Suc(OMe)-AAPV-MCA, and Z-LLE-MCA. 25 μl of 0.04 mM substrates were preincubated at 37° C. for 5 min. 20 μl of protease sample were mixed with 25 μl of 400 mM phosphate buffer, pH 6.7, 5 μl of 2 M NaCl, and 25 μl of Milli Q water, and then preincubated at 37° C. for 5 min. The reactions were started by mixing the substrate solutions and the enzyme solutions. Increases of fluorescent strength were measured by FL600 Microplate Fluorescence Reader with 360 nm excitation and 460 nm emission filters at 37° C. for 30 min.
4-(2-aminoethyl)-benzenesulfonyl fluoride (AEBSF), leupeptin, pepstatin A, ZnSO4, and EDTA were purchased from Wako Chemical Co., Osaka. The inhibitors were 4.5 mg/10 ml leupeptin in DMSO diluted 10 times by Milli Q water, 3 mg/10 ml pepstatin A in DMSO diluted 10 times by Milli-Q water, 10 mM AEBSF, 10 mM ZnSO4, and 10 mM EDTA. The substrate was 0.04 mM Suc-LLVY-MCA. Enzyme solution contains 5 μl of pooled 19 kDa protease fraction, 10 μl of inhibitors, 25 μl of 400 mM KPB, pH 6.7, and 35 μl of Milli-Q water. The substrate solution and the enzyme solutions were preincubated separately at 37° C. for 5 min. The activities were measured as described above.
Regarding `NCCc1ccc(S(=O)(=O)F)cc1` [AEBSF, 4-(2-aminoethyl)-benzenesulfonyl fluoride], the “residual activity (%)” value was found to be 100%.
As to `O=S(=O)([O-])[O-].[Zn+2]` [ZnSO4], the “residual activity (%)” value came to 99%.
The same measure, in the same setting: the figure for `CC(=O)N[C@@H](CC(C)C)C(=O)N[C@@H](CC(C)C)C(=O)N[C@H](C=O)CCCNC(=N)N` [Leupeptin, leupeptin] is 89%; for `CC(C)CC(=O)N[C@H](C(=O)N[C@H](C(=O)N[C@@H](CC(C)C)[C@@H](O)CC(=O)N[C@@H](C)C(=O)N[C@@H](CC(C)C)[C@@H](O)CC(=O)O)C(C)C)C(C)C` [Pepstatin, pepstatin A] (Isovaleryl-VV[Sta]A[Sta]-OH) it is 91%.
On the same count and under the same terms, the figure for `O=C(O)CN(CCN(CC(=O)O)CC(=O)O)CC(=O)O` [EDTA] is 101%.

Test system in a further assay: not listed separately
The assay can be described thus: pH profile of the 19 kDa protease. Type of assay: biochemical, Aspergillus niger. As to conditions: phosphate buffer pH 6, 7, 8 and diethanolamine buffer pH 8, 9, 10; 0.04 mM Suc-LLVY-MCA. The procedure:
as §1
Phosphate buffer pH6, 7, 8, and Diethanolamine buffer pH 8, 9, 10 were used. The substrate solution was 0.04 mM Suc-LLVY-MCA. The enzyme solution contains 5 μl of 19 kDa protease, 25 μl of buffer, 5 μl of 2 M NaCl and 40 μl of Milli Q water. Assay was performed as described before. The 19 kDa protease is an alkaline protease with the pH optimum 8-9.
In the case of B1, the pH optimum was 8-9.

Another assay has as its system 19 kDa protease. The assay can be described thus: Substrate specificity of the 19 kDa protease (fluorogenic MCA substrates). Format: biochemical, Aspergillus niger. As to conditions: 0.04 mM substrate solution, phosphate buffer pH 6.7, 37° C., 30 min, fluorescence 360/460 nm; Suc-LLVY-MCA = 100%. The procedure: as §1
As for “Boc-FSR-MCA (Boc-Phe-Ser-Arg-{AMC}) [synthetic substrate purchased from Peptide Institute Co., Osaka]”, the “Substrate specificity (relative activity on substrate)” value turned out to be 0.3%.
As for “Suc-LLVY-MCA (Suc-LLVY-{AMC}) [synthetic substrate purchased from Peptide Institute Co., Osaka]”, the “Substrate specificity (relative activity on substrate)” value is 100.0%.
Same read-out and setting: the figure for “Z-LLE-MCA ({code Z}-Leu-Leu-Glu-{AMC}; reading uncertain; also: printed as Z-LLE-MCA) [synthetic substrate purchased from Peptide Institute Co., Osaka]” is 0.1%.
Consider “Suc(OMe)-AAPV-MCA ({Suc(OMe)}-AAPV-{AMC}) [synthetic substrate purchased from Peptide Institute Co., Osaka]”, for which the “Substrate specificity (relative activity on substrate)” value is 0.2%.
Take “Glt-AAF-MCA (Glt-Ala-Ala-Phe-{AMC}) [synthetic substrate purchased from Peptide Institute Co., Osaka]”: the “Substrate specificity (relative activity on substrate)” value is 1.6%.

The assay is the same for the next values; noted with them: five synthetic substrates compared, pH 6.7, 37° C.
“Suc-LLVY-MCA (Suc-LLVY-{AMC}) [synthetic substrate purchased from Peptide Institute Co., Osaka]”: the “substrate ranking (in words)” value is “best substrate”.
